Test results from patent US20120225062A1 (priority 2011, published 2012).

What was measured:
Pim 3 = Pim 3 (Homo sapiens, UniProt Q86V86); assay: Pim 3 AlphaScreen assay (high ATP)
Pim 1 = Pim 1 (Homo sapiens, UniProt P11309); assay: Pim 1 AlphaScreen assay (high ATP)
[1] = tested on: KMS11 (human myeloma cell line); assay: Cell Proliferation Assay (CellTiter-Glo, 3 days); format: cell-based; conditions: KMS-11, 72 h, KMS11-luc cells
Method in brief: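 EC50 from CellTiter-Glo luminescence after 3-day, 37° C compound treatment of KMS11 cells seeded at 2000 per well in IMDM plus 10% FBS.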

Pim 2 = Pim 2 (Homo sapiens, UniProt Q9P1W9); assay: Pim 2 AlphaScreen assay (high ATP)
Sequence of Pim 2 (Q9P1W9 whole entry): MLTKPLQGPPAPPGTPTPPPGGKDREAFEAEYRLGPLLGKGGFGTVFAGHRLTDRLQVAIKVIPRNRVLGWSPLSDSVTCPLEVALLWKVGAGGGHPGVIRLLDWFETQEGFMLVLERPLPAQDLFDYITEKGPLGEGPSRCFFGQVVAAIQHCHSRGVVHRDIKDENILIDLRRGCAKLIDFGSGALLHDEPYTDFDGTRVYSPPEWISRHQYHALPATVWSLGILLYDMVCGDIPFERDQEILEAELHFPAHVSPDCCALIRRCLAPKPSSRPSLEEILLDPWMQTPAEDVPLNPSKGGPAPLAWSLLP

Sequence of Pim 1 (P11309 whole entry): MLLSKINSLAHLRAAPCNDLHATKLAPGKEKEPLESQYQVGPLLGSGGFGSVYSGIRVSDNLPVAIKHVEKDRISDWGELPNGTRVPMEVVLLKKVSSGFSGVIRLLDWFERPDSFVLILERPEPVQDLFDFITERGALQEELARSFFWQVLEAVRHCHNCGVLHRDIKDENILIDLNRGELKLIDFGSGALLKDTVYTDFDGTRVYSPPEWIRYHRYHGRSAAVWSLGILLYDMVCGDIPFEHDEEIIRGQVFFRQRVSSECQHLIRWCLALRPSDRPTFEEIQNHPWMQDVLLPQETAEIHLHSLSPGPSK

Row | IC50 (Pim 3) | IC50 (Pim 1) | EC50 [1] | IC50 (Pim 2) | SMILES
1 | 2.3 nM | 0.04 nM | 78 nM | 1.87 nM | C[C@H]1C[C@@H](c2ccncc2NC(=O)c2ccc(F)c(-c3c(F)cc(C(C)(C)C#N)cc3F)n2)C[C@@H](N)[C@@H]1O [Example 165, N-(4-((1R,3R,4R,5S)-3-amino-4-hydroxy-5-methylcyclohexyl)pyridin-3-yl)-6-(4-(2-cyanopropan-2-yl)-2,6-difluorophenyl)-5-fluoropicolinamide]
2 | 0.72 nM | 0.02 nM | 13 nM | 3.28 nM | C[C@@H]1C[C@H](N)C[C@H](c2ccncc2NC(=O)c2ccc(F)c(-c3c(F)cc(OCC(C)(C)O)cc3F)n2)C1 [Example 50, N-(4-((1R,3S,5S)-3-amino-5-methylcyclohexyl)pyridin-3-yl)-6-(2,6-difluoro-4-(2-hydroxy-2-methylpropoxy)phenyl)-5-fluoropicolinamide]
3 | 0.94 nM | 0.02 nM | 23 nM | 1.69 nM | COCCc1cc(F)c(-c2nc(C(=O)Nc3cnccc3[C@@H]3C[C@H](C)C[C@H](N)C3)ccc2F)c(F)c1 [Example 67, N-(4-((1R,3S,5S)-3-amino-5-methylcyclohexyl)pyridin-3-yl)-6-(2,6-difluoro-4-(2-methoxyethyl)phenyl)-5-fiuoropicolinamide]
